# Reference: patent US10716950B2, “Treatment of thalamocortical dysrhythmia” (priority 2012, dated 2020)
# Entries after “also recorded” stand apart in the source; their conditions may differ. Where two headings read alike, the source gives them in different places.
# How the values were obtained:
# depression = details: ketamine alone, cited from earlier work
# [1] = test system: conditions associated with thalamocortical dysrhythmia; experiment: TMS/Ketamine combination treatment of patients (Example 1)
# Experimental: Thirty-five patients were treated with a combination of ketamine and TMS. […] For simplicity of presentation in Table 2, patients receiving treatment more than once a week are shown as receiving a single treatment for that week. Also, intervals are rounded to the nearest week.
# Others received a priming TMS treatment prior to the combination treatment. Some patients received neither pretreatment nor priming, although most patients received one or the other. Since the priming treatment is less rigorous than several days of pretreatment, all patients receiving pretreatment were ultimately switched to priming or neither. Pretreatment and or priming treatment were administered based upon diagnosis and patient compliance.
# [2] = test system: obsessive-compulsive disorder (OCD); details: OCD patients infused with ketamine; compared with depression and CRPS; Pittenger et al. 2012; cited from earlier work
# [3] = test system: conditions associated with thalamocortical dysrhythmia; experiment: TLVES/Ketamine combination treatment of patients (Example 2); details: all three patients; tACS or tRNS 20 minutes; ketamine total dose 0.5-5.0 mg per kg infused over 15-50 minutes
# [4] = patient B3, Unipolar Depression & ADD, ketamine combined with TMS
# [5] = patient B6, Bipolar Depression, ketamine combined with TMS
# [6] = patient B23, Fibromyalgia, PTSD, mixed connective tissue disease, ketamine combined with TMS
# [7] = patient B26, Bipolar Disorder, poly-substance abuse, ketamine combined with TMS
# [8] = patient C11, Tourette's and secondary depression, ketamine combined with TMS
# [9] = patient D8, OCD & secondary depression, ketamine combined with TMS
# [10] = patient D20, Depression & frontal lobe disorder, ketamine combined with TMS
# [11] = patient H2, Bipolar Depression, ketamine combined with TMS
# [12] = patient K10, CRPS & regulatory disorder of childhood, ketamine combined with TMS
# [13] = patient N7, Multiple head injuries and depression, ketamine combined with TMS
# [14] = patient N13, Bipolar Disorder & chronic neck and back pain, ketamine combined with TMS
# [15] = patient N14, Unipolar Depression, ADD, alcohol abuse, concussion, ketamine combined with TMS
# [16] = patient N30, Depression, fibromyalgia, back pain, ketamine combined with TMS
# [17] = patient O34, ADHD, concussion, back pain, substance abuse, ketamine combined with TMS
# [18] = patient Q9, Bipolar Depression, ketamine combined with TMS
# [19] = patient R17, Childhood depression, PTSD, poly-substance abuse, ketamine combined with TMS
# [20] = patient R32, OCD & secondary depression, poly-substance abuse, ketamine combined with TMS
# [21] = patient S1, Generalized anxiety & secondary depression, ketamine combined with TMS
# [22] = patient S36, Depression, panic attacks, ketamine combined with TMS
# [23] = patient T15, Bipolar Depression, ketamine combined with TMS
# [24] = patient T29, Bipolar Disorder, dormant poly-substance abuse, ketamine combined with TMS
# [25] = patient W24, Depression, ketamine combined with TMS
# [26] = patient Z4, Unipolar Depression & ADD, ketamine combined with TMS
# [27] = patient Z27, Childhood onset bipolar disorder, ADD, RSD, ketamine combined with TMS
# [28] = patient, Bipolar Disorder, poly-substance abuse, ketamine combined with TMS
# [29] = patient, Depression & poly-substance abuse, ketamine combined with TMS
# [30] = patient, Unipolar Depression & minor epilepsy, ketamine combined with TMS
# [31] = patients having positive outcomes, ketamine combined with TMS
structure (smiles),measurement,setting,value
"CNC1(c2ccccc2Cl)CCCCC1=O (racemic) [ketamine, (RS)-2-(2-Chlorophenyl)-2-(methylamino)cyclohexanone]",Lasting relief from suicidality or depression,depression,highly transitory
same,Success rate in the treatment of depression,depression; dosages reportedly 5-15 times higher than with TMS,60-70%
same,Lasting relief from suicidality or depression,depression; listed as Ketamine,"does not, however, appear to provide lasting relief from suicidality or depression"
same,Effectiveness in treating depression,depression; patients with bipolar disorder who have not responded to anti-depressants,effective
same,Time to rapid antidepressant effect,depression; persons with major depressive disorder (and bipolar depression),two
same,Outcome of the patients that completed treatment,"[1]; all of the 28 patients that completed treatment, of thirty-five treated, ketamine combined with TMS",positive outcome
same,Outcome,[1]; [4],"entered graduate school, got out of abusive relationship"
same,Overall Response,[1]; [4],excellent
same,Outcome,[1]; [5],"entered graduate school, began to date for first time"
same,Overall Response,[1]; [5],excellent
same,Outcome,[1]; [6],"off pain medicine, calm, more active"
same,Outcome: adverse effect,[1]; [6],experienced severe nausea
same,Overall Response,[1]; [6],excellent
same,Outcome,[1]; [7],"returned to college, got married"
same,Overall Response,[1]; [7],excellent
same,Outcome,[1]; [8],"off of inappropriate medicines, calm, in school"
same,Overall Response,[1]; [8],good
same,Outcome,[1]; [9],back to work and active family life
same,Overall Response,[1]; [9],good
same,Outcome,[1]; [10],"depression lifted, apathy lifted, pace of thought improved"
same,Overall Response,[1]; [10],excellent
same,Outcome,[1]; [11],returned to home-life and active mothering
same,Overall Response,[1]; [11],good
same,Outcome,[1]; [12],"off of opioid narcotics, entered trade school, saved subject's life"
same,Overall Response,[1]; [12],excellent
same,Outcome,[1]; [13],"off of all opioid narcotics, back to church life"
same,Overall Response,[1]; [13],excellent
same,Outcome,[1]; [14],"off of all opioid narcotics, calm, walking well"
same,Overall Response,[1]; [14],very good
same,Outcome,[1]; [15],"calm, repaired broken business & family life, sober"
same,Overall Response,[1]; [15],very good
same,Outcome,[1]; [16],"off opioid narcotics, not depressed, traveling"
same,Overall Response,[1]; [16],excellent
same,Outcome,[1]; [17],"did very well, significant other coaxed subject back to substance; also recorded: abuse"
same,Overall Response,[1]; [17],excellent
same,Outcome,[1]; [18],"back to work, repaired broken marriage"
same,Overall Response,[1]; [18],excellent
same,Outcome,[1]; [19],"learned to read, entered college, sober"
same,Overall Response,[1]; [19],excellent
same,Outcome,[1]; [20],"sober, calm, back to college"
same,Overall Response,[1]; [20],excellent
same,Outcome,[1]; [21],"returned to college, sober"
same,Overall Response,[1]; [21],excellent
same,Outcome,[1]; [22],"did very well, repaired broken marriage and family"
same,Overall Response,[1]; [22],excellent
same,Outcome,[1]; [23],back to church life and active family life
same,Overall Response,[1]; [23],excellent
same,Outcome,[1]; [24],"entered graduate school, running family business, still sober"
same,Overall Response,[1]; [24],excellent
same,Outcome,[1]; [25],back to work and active family life
same,Overall Response,[1]; [25],excellent
same,Outcome,[1]; [26],"no longer bedridden, left bad marriage"
same,Overall Response,[1]; [26],very good
same,Outcome,[1]; [27],"sober, calm, entered college and at work part-time"
same,Overall Response,[1]; [27],very good
same,Outcome,[1]; [28],"calm, still in early stage of treatment"
same,Overall Response,[1]; [28],very good
same,Outcome,[1]; [29],"sober, active with family business"
same,Overall Response,[1]; [29],excellent
same,Outcome,[1]; [30],relapsed
same,Overall Response,[1]; [30],good
same,Adverse side effects,[1]; [31],reduced adverse side effects
same,Durability of the positive result,[1]; [31],"more robust, i.e., long lasting, positive result; also recorded: lasting result"
same,Percentage of patients with positive outcome compared with success rate reported for TMS alone or ketamine alone,"[1]; patients that completed treatment, ketamine combined with TMS",higher
same,Response to previous TMS/ketamine treatment,"[1]; three more frail, less robust patients later given TLVES/ketamine",significantly improved
same,Benefit in OCD patients,[2],rather more limited
same,Post-treatment fatigue compared with TMS/ketamine,[3],less of the post-treatment fatigue
same,Therapeutic benefit compared with TMS/ketamine,[3],same therapeutic benefits as TMS/ketamine
